Laboratory results published in US12605358B2, “Composition for preventing or treating nervous system diseases comprising compound that inhibits mTOR signaling pathway as active ingredient” (ALIAD BIOPHARMA, priority 2021, dated 2026).

Test system: primary cultured hippocampal neurons
Test: LC3-eGFP puncta formation assay (autophagy promotion)
Format: cell-based, rat
Details: rapamycin and HN-1703 at 0.1 μM and 0.5 μM respectively, 12 hours; FIG. 3A
Protocol: Primary neurons culture was performed from the hippocampus of rat (SD, Orient Bio) embryonic 16-day (E16) embryos. The left and right hemispheres of the extracted brain were separated using sterile tweezers under a dissecting microscope, the meninges were peeled off, the hippocampus was cut with No. 55 tweezers, and neural progenitor cells were mechanically dissolved in a Ca^2+/Mg^2+-free HBSS (Invitrogen) solution by pipetting with a pasteur pipette (Falcon, 354647). Undissolved tissues or vascular cells were settled, and then a supernatant was taken to measure the cell number and the isolated cells were seeded at 19,000 cells/cm^2 in a 35 mm culture dish coated with poly-L-ornithine (sigma, P3655) and fibronectin (sigma, F4759). The cells were cultured using a serum-free N2 medium (growth medium) added with 10 ng/mL bFGF (Invitrogen) in a 5% CO2 incubator, and the culture medium was replaced after 6 hours and after 24 hours. After 2 days, when the cells proliferated twice or more, subculture was performed.
After 3 days of the primary neural progenitor cell culture, a process of subculturing with 0.05% trypsin was repeated twice, and DNA electroporation or transfection was performed before seeding. […]
The number of cell nuclei labeled with DAPI and the number of cells expressing green fluorescence by overlapping LC3-eGFP expression and DAPI labeling were measured. The number of eGFP-LC3 puncta was measured per cell, and the signal intensity of puncta was measured using a confocal laser microscope program. […]
The autophagy promoting effect of HN-1703 in neurons differentiated by culturing hippocampal neural progenitor cells from rat embryos (E16) was evaluated by performing an LC3-eGFP puncta formation assay. The neural progenitor cells into which an LC3-eGFP recombinant gene was introduced by electroporation were differentiated into neurons, treated with rapamycin and HN-1703 at concentrations of 0.1 μM and 0.5 μM for 12 hours, respectively, and the puncta of LC3-GFP were scanned with a confocal laser microscope (Zeiss, LSM800) to measure the fluorescence intensity of LC3-eGFP and the number of puncta, and the results were illustrated in FIG. 3. Specifically, FIG. 3A illustrates confocal scanning micrographs of LC3-eGFP puncta formation after treated primary cultured hippocampal neurons overexpressing an LC3-eGFP fusion protein with HN-1703, and quantifying the number and fluorescence intensity of LC3-eGFP puncta per cell, and FIG. 3B illustrates a result of LC3-II turnover analysis.

CO[C@H]1C[C@@H]2CC[C@@H](C)[C@@](O)(O2)C(=O)C(=O)N2CCCC[C@H]2C(=O)O[C@H]([C@H](C)C[C@@H]2CC[C@@H](O)[C@H](OC)C2)CC(=O)[C@H](C)/C=C(\C)[C@@H](O)[C@@H](OC)C(=O)[C@H](C)C[C@H](C)/C=C/C=C/C=C/1C [rapamycin, reference compound]
increase of the number of LC3-eGFP puncta compared to a control group: 49%
increase of the signal intensity of LC3-eGFP puncta compared to the control group: 15%
